In brackets after ≈: the same amount, converted by molar mass.
Key:
Type in all cases: functional
[1] = system: Streptococcus pneumoniae; test: Minimum inhibitory concentration of the compound against erythromycin-susceptible Streptococcus pneumoniae was determined
[2] = system: Streptococcus pneumoniae; test: Minimum inhibitory concentration of the compound against 3 […] Streptococcus pneumoniae OC4051 with an erm(B)-ribosomal methylase-mediated resistance was determined
[3] = system: Haemophilus influenzae; test: Minimum inhibitory concentration of the compound against Haemophilus influenzae OC4882 was determined
[4] = system: Enterococcus faecalis; test: Minimum inhibitory concentration of the compound againstEnterococcus faecalis ATCC 51299 with an erm(B)-encoded ribosomal methylase was determined
[5] = system: Staphylococcus aureus; test: Minimum inhibitory concentration of the compound against erythromycin-susceptible Staphylococcus aureus Smith OC4172 was determined
[6] = system: Streptococcus pneumoniae; test: Minimum inhibitory concentration of the compound against 3 […] Streptococcus pneumoniae OC4421 with an mef(A) efflux-mediated resistance was determined
[7] = system: Mus musculus; test: Effective dose required to inhibit Staphylococcus aureus in mouse was determined after sub cutaneous administration (6.6-70)
[8] = system: Mus musculus; test: Effective dose required to inhibit Staphylococcus aureus in mouse was determined after peroral administration of the compound; settings: po

Row | Structure (SMILES) | MIC [1] | MIC [2] | MIC [3] | MIC [4] | MIC [5] | MIC [6] | ED50 [7] | ED50 [8]
1 | CC[C@H]1OC(=O)[C@@](C)(F)C(=O)[C@H](C)[C@@H](O[C@@H]2O[C@H](C)C[C@H](N(C)C)[C@H]2O)[C@](C)(OC(=O)NCCOCc2ccc(-c3ncccn3)cc2)C[C@@H](C)/C(=N\O)[C@H](C)[C@H]2NC(=O)O[C@@]21C | 0.06 µg/mL (≈ 0.0676 µM) | 0.06 µg/mL (≈ 0.0676 µM) | 8 µg/mL (≈ 9.02 µM) | 16 µg/mL (≈ 18 µM) | 0.5 µg/mL (≈ 0.564 µM) | 0.25 µg/mL (≈ 0.282 µM) |  | 
2 | CC[C@H]1OC(=O)[C@@](C)(F)C(=O)[C@H](C)[C@@H](O[C@@H]2O[C@H](C)C[C@H](N(C)C)[C@H]2O)[C@](C)(OC(=O)NC/C=C/c2ccccc2)C[C@@H](C)/C(=N\O)[C@H](C)[C@H]2NC(=O)O[C@@]21C | 0.03 µg/mL (≈ 0.0379 µM) | 0.12 µg/mL (≈ 0.152 µM) | 2 µg/mL (≈ 2.53 µM) | > 16 µg/mL | 0.25 µg/mL (≈ 0.316 µM) | 0.5 µg/mL (≈ 0.632 µM) |  | 
3 | CC[C@H]1OC(=O)[C@@](C)(F)C(=O)[C@H](C)[C@@H](O[C@@H]2O[C@H](C)C[C@H](N(C)C)[C@H]2O)[C@](C)(OC(=O)NC/C=C/c2ccc(-c3ncccn3)cc2)C[C@@H](C)C(=O)[C@H](C)[C@H]2NC(=O)O[C@@]21C | 0.06 µg/mL (≈ 0.0703 µM) | 0.12 µg/mL (≈ 0.141 µM) | 8 µg/mL (≈ 9.37 µM) | 8 µg/mL (≈ 9.37 µM) | 0.5 µg/mL (≈ 0.585 µM) | 0.12 µg/mL (≈ 0.141 µM) | 12 mg/kg | > 40 mg/kg
4 | CC[C@H]1OC(=O)[C@@](C)(F)C(=O)[C@H](C)[C@@H](O[C@@H]2O[C@H](C)C[C@H](N(C)C)[C@H]2O)[C@](C)(OC(=O)NC/C=C/c2ccc(-c3ncccn3)o2)C[C@@H](C)C(=O)[C@H](C)[C@H]2NC(=O)O[C@@]21C | 0.06 µg/mL (≈ 0.0711 µM) | 0.12 µg/mL (≈ 0.142 µM) | 16 µg/mL (≈ 19 µM) | > 16 µg/mL | 0.5 µg/mL (≈ 0.592 µM) | 0.5 µg/mL (≈ 0.592 µM) |  | 
5 | CC[C@H]1OC(=O)[C@@](C)(F)C(=O)[C@H](C)[C@@H](O[C@@H]2O[C@H](C)C[C@H](N(C)C)[C@H]2O)[C@](C)(OC(=O)NC/C=C/c2cccnc2)C[C@@H](C)/C(=N\O)[C@H](C)[C@H]2NC(=O)O[C@@]21C | 0.06 µg/mL (≈ 0.0758 µM) | 0.12 µg/mL (≈ 0.152 µM) | 2 µg/mL (≈ 2.53 µM) | > 16 µg/mL | 0.5 µg/mL (≈ 0.631 µM) | 0.5 µg/mL (≈ 0.631 µM) |  | 
6 | CC[C@H]1OC(=O)[C@@](C)(F)C(=O)[C@H](C)[C@@H](O[C@@H]2O[C@H](C)C[C@H](N(C)C)[C@H]2O)[C@](C)(OC(=O)NCc2cn(-c3ncccn3)cn2)C[C@@H](C)C(=O)[C@H](C)[C@H]2NC(=O)O[C@@]21C | 0.03 µg/mL (≈ 0.0367 µM) | 0.12 µg/mL (≈ 0.147 µM) | 4 µg/mL (≈ 4.89 µM) | > 16 µg/mL | 0.25 µg/mL (≈ 0.306 µM) | 0.5 µg/mL (≈ 0.611 µM) |  | 
7 | CC[C@H]1OC(=O)[C@@](C)(F)C(=O)[C@H](C)[C@@H](O[C@@H]2O[C@H](C)C[C@H](N(C)C)[C@H]2O)[C@](C)(OC(=O)NC/C=C/c2ccc(-n3cnnc3)cc2)C[C@@H](C)C(=O)[C@H](C)[C@H]2NC(=O)O[C@@]21C | 0.06 µg/mL (≈ 0.0712 µM) | 0.12 µg/mL (≈ 0.142 µM) | 8 µg/mL (≈ 9.49 µM) | > 16 µg/mL | 0.5 µg/mL (≈ 0.593 µM) | 0.5 µg/mL (≈ 0.593 µM) |  | 
8 | CC[C@H]1OC(=O)[C@H](C)[C@@H](O[C@H]2C[C@@](C)(OC)[C@@H](O)[C@H](C)O2)[C@H](C)[C@@H](O[C@@H]2O[C@H](C)C[C@H](N(C)C)[C@H]2O)[C@](C)(O)C[C@@H](C)C(=O)[C@H](C)[C@@H](O)[C@]1(C)O [ERYTHROMYCIN] | 0.06 µg/mL (≈ 0.0818 µM) | > 16 µg/mL | 8 µg/mL (≈ 10.9 µM) | > 16 µg/mL | 0.5 µg/mL (≈ 0.681 µM) | 4 µg/mL (≈ 5.45 µM) |  | 
9 | CC[C@H]1OC(=O)[C@@](C)(F)C(=O)[C@H](C)[C@@H](O[C@@H]2O[C@H](C)C[C@H](N(C)C)[C@H]2O)[C@](C)(OC(=O)NC/C=C/c2ccc(-c3ccncn3)cc2)C[C@@H](C)C(=O)[C@H](C)[C@H]2NC(=O)O[C@@]21C | 0.03 µg/mL (≈ 0.0351 µM) | 0.06 µg/mL (≈ 0.0703 µM) | 4 µg/mL (≈ 4.68 µM) | > 16 µg/mL | 0.25 µg/mL (≈ 0.293 µM) | 0.12 µg/mL (≈ 0.141 µM) |  | 
10 | CC[C@H]1OC(=O)[C@@](C)(F)C(=O)[C@H](C)[C@@H](O[C@@H]2O[C@H](C)C[C@H](N(C)C)[C@H]2O)[C@](C)(OC(=O)NC/C=C/c2ccc(-c3cccnn3)cc2)C[C@@H](C)C(=O)[C@H](C)[C@H]2NC(=O)O[C@@]21C | 0.03 µg/mL (≈ 0.0351 µM) | 0.06 µg/mL (≈ 0.0703 µM) | 4 µg/mL (≈ 4.68 µM) | 4 µg/mL (≈ 4.68 µM) | 0.12 µg/mL (≈ 0.141 µM) | 0.12 µg/mL (≈ 0.141 µM) |  | 
11 | CC[C@H]1OC(=O)[C@@](C)(F)C(=O)[C@H](C)[C@@H](O[C@@H]2O[C@H](C)C[C@H](N(C)C)[C@H]2O)[C@](C)(OC(=O)NCc2ccc(-c3ccncn3)cc2)C[C@@H](C)C(=O)[C@H](C)[C@H]2NC(=O)O[C@@]21C | 0.03 µg/mL (≈ 0.0362 µM) | 0.06 µg/mL (≈ 0.0725 µM) | 4 µg/mL (≈ 4.83 µM) | 16 µg/mL (≈ 19.3 µM) | 0.12 µg/mL (≈ 0.145 µM) | 0.12 µg/mL (≈ 0.145 µM) |  | 
12 | CC[C@H]1OC(=O)[C@@](C)(F)C(=O)[C@H](C)[C@@H](O[C@@H]2O[C@H](C)C[C@H](N(C)C)[C@H]2O)[C@](C)(OC(=O)NC/C=C/c2ccc3ncccc3c2)C[C@@H](C)/C(=N\O)[C@H](C)[C@H]2NC(=O)O[C@@]21C | 0.03 µg/mL (≈ 0.0356 µM) | 0.03 µg/mL (≈ 0.0356 µM) | 2 µg/mL (≈ 2.38 µM) | 2 µg/mL (≈ 2.38 µM) | 0.25 µg/mL (≈ 0.297 µM) | 0.12 µg/mL (≈ 0.143 µM) |  | 

Reference: ChEMBL document CHEMBL1141900, “Synthesis and antibacterial activity of C2-fluoro, C6-carbamate ketolides, and their C9-oximes” (2005)
